Source: patent US4970204A, “3-substituted nitro-steroid derivatives as 5-α-reductase inhibitors” (SmithKline Beecham Corporation, priority 1989, dated 1990)
Like-named read-outs stand apart in the source and are kept apart here.

Target: T1, human steroid 5-α-reductase (Homo sapiens, UniProt P31213)
T1 construct: Frozen human prostates were thawed and minced into small pieces; from tissue; host or cells: hyperplastic human prostate, washed 140,000×g particulate fraction
T1 sequence (P31213 1-254): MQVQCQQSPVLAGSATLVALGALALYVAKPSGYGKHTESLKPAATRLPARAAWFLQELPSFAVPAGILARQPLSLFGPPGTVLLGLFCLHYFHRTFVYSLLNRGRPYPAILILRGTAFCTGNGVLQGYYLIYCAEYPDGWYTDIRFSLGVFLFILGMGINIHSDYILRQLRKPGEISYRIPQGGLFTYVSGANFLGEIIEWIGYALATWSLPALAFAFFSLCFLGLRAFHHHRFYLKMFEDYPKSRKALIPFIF
Test: inhibition of human steroid 5-α-reductase using tissue from hyperplastic human prostates
Format: biochemical
Procedure: The tissue was homogenized in 3 to 5 volumes of 20 mM potassium phosphate, pH 6.5, buffer containing 0.33 M sucrose, 1 mM dithiothreitol, and 50 μM NADPH with a Brinkmann Polytron (Sybron Corporation, Westbury, N.Y.).
The resulting pellet was suspended in 20 mM potassium phosphate buffer, pH 6.5, containing 20% glycerol, 1 mM dithiothreitol, and 50 μM NADPH. The suspended particulate solution was stored at -80° C.
After incubating the solution at 37° C. for 20 to 30 minutes the reaction was quenched by the addition of 4 ml ethyl acetate and 0.25 μmol each of testosterone, dihydrotestosterone, androstanediol, and androstanedione as carriers. The organic layer was removed to a second test tube and evaporated to dryness in vacuo. […] The radiochemical content in the bands of the substrate and the products was determined with a BIOSCAN Imaging Scanner (Bioscan, Inc., Washington, D.C.). The percent of recovered radiolabel converted to product was calculated, from which enzyme activity was determined. All incubations were conducted such that no more than 12% of the substrate (testosterone) was consumed.
Assuming that the steroidal inhibitor is a competitive inhibitor against testosterone, a value for the inhibition constant (Ki) can be calculated from equation 1: […]

Row | Ki (human prostatic particulate enzyme, [14C]-testosterone substrate, pH 5.0, 37° C., 20 to 30 minutes, Dixon plot, assuming competitive inhibition against testosterone, read-out: inhibition constant (Ki)) | SMILES | Ki
1 | – | CC(C)N(C(=O)[C@H]1CC[C@H]2[C@@H]3CC[C@H]4CC([N+](=O)[O-])=CC[C@]4(C)[C@H]3CC[C@]12C)C(C)C [2-ene analogue, 17β-N,N-diisopropylcarboxamide-3-nitro-5-α-androst-2-ene] | 250 nM
2 | 50 nM | CC(C)N(C(=O)[C@H]1CC[C@H]2[C@@H]3CC[C@H]4C=C([N+](=O)[O-])CC[C@]4(C)[C@H]3CC[C@]12C)C(C)C [17β-N,N-Diisopropylcarboxamide-3-nitro-5-α-androst-3-ene] | –
